# From patent US20090197851A1, “THERAPY AND USE OF COMPOUNDS IN THERAPY” (MAX-DELBRUCK-CENTRUM FUR MOLEKULARE MEDIZIN, priority 1999, published 2009)
# B1: LBP: serum protein which binds to LPS; recombinant LBP produced in the lab of Dr. Schumann (protein, UniProt P18428 26-481, looked up)
# Lipopolysaccharide-binding …: ANPGLVARITDKGLQYAAQEGLLALQSELLRITLPDFTGDLRIPHVGRGRYEFHSLNIHSCELLHSALRPVPGQGLSLSISDSSIRVQGRWKVRKSFFKLQGSFDVSVKGISISVNLLLGSESSGRPTVTASSCSSDIADVEVDMSGDLGWLLNLFHNQIESKFQKVLESRICEMIQKSVSSDLQPYLQTLPVTTEIDSFADIDYSLVEAPRATAQMLEVMFKGEIFHRNHRSPVTLLAAVMSLPEEHNKMVYFAISDYVFNTASLVYHEEGYLNFSITDDMIPPDSNIRLTTKSFRPFVPRLARLYPNMNLELQGSVPSAPLLNFSPGNLSVDPYMEIDAFVLLPSSSKEPVFRLSVATNVSATLTFNTSKITGFLKPGKVKVELKESKVGLFNAELLEALLNYYILNTFYPKFNDKLAEGFPLPLLKRVQLYDLGLQIHKDFLFLGANVQYMRV
# B2: BPi: protein found in human white blood cells that binds to and neutralises endotoxin (protein, UniProt P17213 32-487, looked up)
# Bactericidal …: VNPGVVVRISQKGLDYASQQGTAALQKELKRIKIPDYSDSFKIKHLGKGHYSFYSMDIREFQLPSSQISMVPNVGLKFSISNANIKISGKWKAQKRFLKMSGNFDLSIEGMSISADLKLGSNPTSGKPTITCSSCSSHINSVHVHISKSKVGWLIQLFHKKIESALRNKMNSQVCEKVTNSVSSELQPYFQTLPVMTKIDSVAGINYGLVAPPATTAETLDVQMKGEFYSENHHNPPPFAPPVMEFPAAHDRMVYLGLSDYFFNTAGLVYQEAGVLKMTLRDDMIPKESKFRLTTKFFGTFLPEVAKKFPNMKIQIHVSASTPPHLSVQPTGLTFYPAVDVQAFAVLPNSSLASLFLIGMHTTGSMEVSAESNRLVGELKLDRLLLELKHSNIGPFPVELLQDIMNYIVPILVLPRVNEKLQKGFPLPTPARVQLYNVVLQPHQNFLLFGADVVYK
# Tests used:
# [1] = tested on: LPS-mediated TNF and IL6 production in whole blood; test: LPS-stimulated cytokine production in whole blood of patients with cachexia due to liver cirrhosis (in vitro application); type: cell-based, human; details: 1 mg/ml UDCA, LPS 50 pg/ml, 4 hours
# Protocol: We have tested the ability of ursodeoxycholic acid (UDCA, FALK Pharma GmbH) and BPi to inhibit LPS-mediated TNF production in whole blood of patients with cachexia.
# (§1) We studied 4 patients with cachexia due to liver cirrhosis. The patients had all weight loss >7.5% compared to their previous normal weight. […] All patients were studied twice on 2 subsequent days (day “−1” and day “0”), see FIG. 9 to 12.
# (§2) Methods: Heparinized whole blood was diluted 1:10 with medium+/−LPS (50 pg/ml), +/−BPI (1 μg/ml), and +/−UDCA (1 μg/ml-1 mg/ml) according to the manufactorer's recommendation (Milenia whole blood assay; DPC Biermann, Bad Nauheim, Germany) and incubated for 4 hours at 37° C. In the supernatant, we assessed concentrations of TNF and IL-6 using the semiautomated Immulite system (DPC-Biermann, Bad Nauheim, Germany).
# [2] = tested on: LPS-mediated TNF and IL6 production in whole blood; test: LPS-stimulated cytokine production in whole blood of healthy control subjects (Milenia whole blood assay); type: cell-based, human; details: LPS 50 pg/ml
# Protocol: We have tested the ability of ursodeoxycholic acid (UDCA, FALK Pharma GmbH) to inhibit LPS-mediated TNF production in whole blood of healthy control subjects. Methods: Heparinized whole blood was diluted 1:10 with medium+/-LPS (50 pg/ml), +/-BPI (1 μg/ml), and +/-UDCA ([…]) according to the manufactorer's recommendation ([…] whole blood assay; DPC Biermann, Bad Nauheim, Germany) and incubated for 4 hours at 37° C. In the supernatant, we assessed concentrations of TNF and IL-6 using the semiautomated Immulite system (DPC-Biermann, Bad Nauheim, Germany).
# [3] = tested on: monocyte generated cytokine production in response to LPS; details: in the concentrations used; Greve et al. Hepatology 1989; cited from earlier work
# [4] = tested on: LPS effects; details: high concentrations of LBP, as seen during the acute phase response; cited from earlier work
# [5] = tested on: LPS-induced TNF synthesis in monocytes; test: LPS-induced TNF synthesis in monocytes with pre-incubated serum; type: cell-based, human
# Protocol: LPS-induced cytokine synthesis can be inhibited by serum lipoproteins. However, this is not easily seen experimentally, as it needs a certain pre-incubation procedure (18 hours at 37° C.) that we developed in our laboratory.
# Methodology for example 4, 5, 7, and 8: TNF assessment: ELISA established in the laboratory of Dr. Schumann using 2 monoclonal antibodies (Pharmingen Inc., USA). Recombinant LBP: produced in the lab of Dr. Schumann. Lipoproteins: isolated from sera of healthy young volunteers, isolated by density gradient centrifugation, monocytes isolated also from blood of healthy young volunteers
# Again, serum lacking lipoproteins was unable to block LPS-induced TNF synthesis. The ability to block LPS-induced TNF synthesis could be restored by addition of isolated lipoproteins. […] Methodology as in example 4
# [6] = tested on: LPS effects; details: high concentrations of LBP; cited from earlier work
# [7] = tested on: spontaneous production of TNF and IL6 of whole blood; test: Spontaneous production of TNF and IL6 in whole blood of patients with cachexia due to liver cirrhosis; type: cell-based, human; details: BPi 1 μg/ml, 8 experiments, p<0.05
# Protocol: as §1, §2
# [8] = 100 μg/ml UDCA, whole blood of healthy control subjects, 4 hours
# [9] = 1 mg/ml UDCA, whole blood of healthy control subjects diluted 1:10, 4 hours at 37° C.
molecule,measurement,setting,value
"C[C@H](CCC(=O)O)[C@H]1CC[C@H]2[C@@H]3[C@@H](O)C[C@@H]4C[C@H](O)CC[C@]4(C)[C@H]3CC[C@]12C [UDCA, ursodeoxycholic acid]",reduction of LPS-stimulated TNF production (on average),[1]; whole blood of 4 patients with cachexia due to liver cirrhosis,> 99%
same,reduction of LPS-stimulated IL6 production (on average),[1]; whole blood of patients with cachexia due to liver cirrhosis,97%
same,reduction of LPS-stimulated IL6 production,[2]; [8],43%
same,reduction of LPS-stimulated TNF production,[2]; [8],68%
same,reduction of LPS-stimulated IL6 production,[2]; [9],> 95%
same,reduction of LPS-stimulated TNF production,[2]; [9],> 95%
C[C@H](CCC(=O)O)[C@H]1CC[C@H]2[C@@H]3[C@H](O)C[C@@H]4C[C@H](O)CC[C@]4(C)[C@H]3CC[C@]12C [chenodeoxycholic acid],effectiveness on monocyte generated cytokine production in response to LPS,[3],less effective
B1,blocking of LPS effects in vitro,[4],completely block LPS effects
same,LPS-stimulated TNF production in a monocyte stimulation system,[5]; high concentrations added to normal serum (containing lipoproteins),reduces LPS-stimulated TNF production
same,inhibition of LPS activity (LPS-induced TNF production),"[5]; titrated into lipoprotein-deficient serum, high levels of LBP",inhibit LPS activity
same,blocking of LPS effects in a murine sepsis model,[6],completely block LPS effects
B2,spontaneous production of IL6 of whole blood,[7],reduced significantly
same,spontaneous production of TNF of whole blood,[7],reduced significantly
